Experimental data reported in patent US6506791B2, “Method of treatment of protozoan infections in fish” (Jacksonville State University, priority 2000, dated 2003).

Key:
[1] = tested on: Ick; test: LIGHT EXPERIMENT under greenhouse conditions (effect of light intensity); format: cell-based, Ichthyophthirius multifiliis
Protocol: (§1) An in vivo study was conducted involving the direct dosing of Ick parasites with Phloxine B. 1 μl of Ick theronts, both free-swimming tomites and non-ruptured cysts, and 9 μl of a Phloxine solution containing either 1000, 100, 10, 1 and 0 ppm of Phloxine B were placed into 100×15 mm tri-plate petri dishes providing 3 replicates for each treatment. 1 set of the plates was left exposed to ambient light (6 mE m^−2s^−1) for 5 hr (LIGHT EXPERIMENT), while the other set was kept in the dark for 4 hr then exposed to ambient light for 1 hr (DARK EXPERIMENT). Percent mortality was assessed, then both light and dark plates received a second dose of Phloxine B at the same concentration as before and treated in the same manner.
An experiment was designed to test the effect of light intensity on the effectiveness of Phloxine B treatment of Ick. The previous experiments described in Examples 1 and 2 were conducted in the lab. The ambient light intensity in the lab was very low, 6 μmol m^−2s^−1. An experiment was conducted as following the protocol of Example 1, except the experiment was conducted in a greenhouse to better mimic natural light conditions.

[2] = tested on: Ick theronts, both free-swimming tomites and non-ruptured cysts; test: Direct dosing of Ick parasites with Phloxine B, DARK EXPERIMENT (lab conditions); format: cell-based, Ichthyophthirius multifiliis
Protocol: as §1

[3] = exposure to sunlight; cited from earlier work
[4] = tested on: Ick; test: Light and dark experiment with doubled exposure times (Example 2); format: cell-based, Ichthyophthirius multifiliis; details: 8 hr dark then 2 hr light or 10 hr light
Protocol: as §1
A light and dark experiment were set up following the protocol in Example 1, but exposure times were doubled—8 hr dark then 2 hr light or 10 hr light.

[5] = tested on: mouse; details: cited from earlier work
[6] = tested on: Ick theronts, both free-swimming tomites and non-ruptured cysts; test: Direct dosing of Ick parasites with Phloxine B, LIGHT EXPERIMENT (ambient light, lab); format: cell-based, Ichthyophthirius multifiliis
Protocol: as §1

[7] = tested on: rat; details: cited from earlier work
[8] = tested on: Ick trophozoite stage attached to the fish host; test: Aquarium treatment of fish infected with Ick, microscopic examination; format: in vivo, Ichthyophthirius multifiliis; details: around 5 mg/L in aquarium, added in darkness, at least eight hours absorption, then artificial lamps
From the text: The effectiveness of treatments of photoactive dyes on parasite control in a particular fish population can be determined by those skilled in the art by monitoring the general behavior of the fish (swimming, feeding, etc.) and the appearance of the parasite by microscopic examination. For example, live Ick trophozoites may be monitored using image analysis microscopy using a Image-Pro Plus V. 4.0.0.13, available from Media Cybernetics, L.P.
In one embodiment of the invention, the photoactive dye, Phloxine B, is added as a dry powder to an aquarium containing fish infected with Ick. The Phloxine B is added to achieve a final concentration of around 5 mg/L. The Phloxine B is added to the aquarium in darkness and at least eight hours of absorption is allowed before photoactivation. Photoactivation is achieved by exposing the Ick infected fish to light from artificial lamps. […] Although this particular embodiment is performed in a laboratory setting, those skilled in the art will understand that the teachings can be adapted to a commercial operation without undue experimentation.

[9] = tested on: humans; details: according to the FDA (1982); cited from earlier work
[10] = tested on: dog; details: cited from earlier work
[11] = cited from earlier work

For `O=C([O-])c1c(Cl)c(Cl)c(Cl)c(Cl)c1-c1c2cc(Br)c(=O)c(Br)c-2oc2c(Br)c([O-])c(Br)cc12.[Na+].[Na+]` [Phloxine B, 2′, 4′, 5′ 7′-tetrabromo-4,5,6,7-tetrachlorofluorescein, disodium salt], the Percent mortality ([1]; 1 ppm) was “No effect”, the Percent mortality ([1]; 10 ppm, 1 dose) was “No effect” and the Percent mortality ([1]; 100 ppm, 1 dose) was 50% Mortality. The Percent mortality ([1]; 1000 ppm, 1 dose) was 100% Mortality, the Percent mortality ([2]; 1 ppm, 1 dose, dark 4 hr then ambient light 1 hr) was “No effect” and the Percent mortality ([2]; 1 ppm, 2 doses, dark 4 hr then ambient light 1 hr per dose) was “No effect”. For the same compound, the Percent mortality ([2]; 10 ppm, 1 dose, dark 4 hr then ambient light 1 hr) was “No effect”, the Percent mortality ([2]; 10 ppm, 2 doses, dark 4 hr then ambient light 1 hr per dose) was “No effect” and the Percent mortality ([2]; 100 ppm, 1 dose, dark 4 hr then ambient light 1 hr) was “No effect”. It also gave a Percent mortality ([2]; 100 ppm, 2 doses, dark 4 hr then ambient light 1 hr per dose) of 10% Mortality, a Percent mortality ([2]; 1000 ppm, 1 dose, dark 4 hr then ambient light 1 hr) of 40% Mortality and a Percent mortality ([2]; 1000 ppm, 2 doses, dark 4 hr then ambient light 1 hr per dose) of 95% Mortality. For the same compound, the “Time to degradation and detoxification” value [3] was < 1 h, the “Effect of exposure time on effectiveness of the dye” value [4] was “longer exposure time increased the effectiveness” and the LD50 [5] was 310 mg/kg. The Percent mortality ([6]; 1 ppm, 1 dose, ambient light 5 hr) was “No effect”, the Percent mortality ([6]; 1 ppm, 2 doses, ambient light 5 hr per dose) was “No effect” and the Percent mortality ([6]; 10 ppm, 1 dose, ambient light 5 hr) was “No effect”. The Percent mortality ([6]; 10 ppm, 2 doses, ambient light 5 hr per dose) was “No effect”, the Percent mortality ([6]; 100 ppm, 1 dose, ambient light 5 hr) was 20% Mortality and the Percent mortality ([6]; 100 ppm, 2 doses, ambient light 5 hr per dose) was 80% Mortality. For the same compound, the Percent mortality ([6]; 1000 ppm, 1 dose, ambient light 5 hr) was 80% Mortality, the Percent mortality ([6]; 1000 ppm, 2 doses, ambient light 5 hr per dose) was 100% Mortality and the “Uptake of the dye by free-swimming and encysted organisms” value ([6]; observation from Examples 1-3) was “taken up both free-swimming and encysted organisms”. For the same compound, the LD50 [7] was 8400 mg/kg, the “Effectiveness against trophozoite stage attached to the fish host” value [8] was “effective against the formerly invulnerable trophozoite stage” and the “Relatively non-toxic ingested amount” value [9] was ≤ 1.25 mg/kg body weight. For the same compound, the LD50 [10] was > 4600 mg/kg and the Water solubility [11] was “greater than 120 mg/l”.
